Assay results taken from patent US20220071993A1, “A VILAZODONE SOLID DISPERSION AND PREPARATION METHOD THEREOF” (SUNSHINE LAKE PHARMA CO., LTD., priority 2018, published 2022).
Where a name gives a salt, the structure may show the parent alone. Read-outs that look alike come from different tables or passages of the source.

Experiments:
[1] = Dissolution of vilazodone in different organic solvents; assay type: physicochemical; conditions: 10 mg/ml, sonicated 30 min, room temperature 24 h
Description: (§1) 10 mg of vilazodone hydrochloride solid powder was put into a 4 ml EP tube. 1 ml of dichloromethane, methanol, ethanol, acetone and ethyl acetate was added to each tube separately, and the tubes were sonicated in a water bath for 30 minutes. The dissolution of the powder was observed; after the samples were placed at room temperature for 24 h, the appearance of the samples was observed and whether there was precipitation was noted.

[2] = Dissolution of vilazodone hydrochloride in ethanol aqueous solution; assay type: physicochemical; conditions: 10 mg
Description: as §1, with “ethanol aqueous solution of different concentrations” for “dichloromethane, methanol, ethanol, acetone and ethyl acetate”

[3] = Dissolution of vilazodone hydrochloride in methanol aqueous solution; assay type: physicochemical; conditions: 30 mg
Description: (§2) 30 mg of vilazodone hydrochloride solid powder was put into a 10 ml EP tube 3 ml of methanol aqueous solution of different concentrations was added to each tube separately, and the tubes were sonicated in a water bath for 30 minutes. The dissolution of the powders was observed; if the powder was dissolved quickly, a small amount of powder was continued to add to increase the concentration of the sample and was dissolved ultrasonically; finally, the solution samples were placed at room temperature for 24 hours to observe whether there was precipitation.

[4] = Dissolution of vilazodone hydrochloride in acetone aqueous solution; assay type: physicochemical; conditions: 10 mg
Description: as §2, with “10 mg” for “30 mg”, “a 4” for “a 10”, “EP tube. 1” for “EP tube 3”, “of acetone” for “of methanol”, “the powder” for “the powders”

[5] = cited from earlier work

N#Cc1ccc2[nH]cc(CCCCN3CCN(c4ccc5oc(C(N)=O)cc5c4)CC3)c2c1 [vilazodone hydrochloride, 5-{4-[4-(5-cyano-3-indole)-butyl]-1-piperazinyl}-coumarone-2-carboxamide]
Phenomenon (dissolution) ([1]; Acetone): Insoluble, a little of precipitation | Phenomenon (dissolution) ([1]; Dichloromethane): Insoluble, a lot of precipitation | Phenomenon (dissolution) ([1]; Ethanol): Insoluble, a little of precipitation | Phenomenon (dissolution) ([1]; Ethyl acetate): Insoluble, a lot of precipitation | Phenomenon (dissolution) ([1]; Methanol): Insoluble, a little of precipitation | Phenomenon (dissolution) ([2]; Ethanol 0.1 ml + Water 0.9 ml): Insoluble, a lot of precipitation | Phenomenon (dissolution) ([2]; Ethanol 0.2 ml + Water 0.8 ml): Insoluble, a lot of precipitation | Phenomenon (dissolution) ([2]; Ethanol 0.3 ml + Water 0.7 ml): Insoluble, a lot of precipitation | Phenomenon (dissolution) ([2]; Ethanol 0.4 ml + Water 0.6 ml): Dissolved, precipitate after 1 day | Phenomenon (dissolution) ([2]; Ethanol 0.6 ml + Water 0.4 ml): Dissolved, precipitate after 1 day | Phenomenon (dissolution) ([2]; Ethanol 0.8 ml + Water 0.2 ml): Insoluble, a lot of precipitation | Phenomenon (dissolution) ([2]; Ethanol 0.9 ml + Water 0.1 ml): Insoluble, a lot of precipitation | Result (dissolution) ([3]; Methanol 0.3 ml + Water 2.7 ml): Insoluble, a lot of precipitation | Result (dissolution) ([3]; Methanol 0.6 ml + Water 2.4 ml): Insoluble, a lot of precipitation | Result (dissolution) ([3]; Methanol 0.9 ml + Water 2.1 ml): Insoluble, a lot of precipitation | Result (dissolution) ([3]; Methanol 1.2 ml + Water 1.8 ml): Insoluble, a lot of precipitation | Phenomenon (dissolution) ([4]; Acetone 0.1 ml + Water 0.9 ml): Insoluble, a lot of precipitation | Phenomenon (dissolution) ([4]; Acetone 0.2 ml + Water 0.8 ml): Insoluble, a lot of precipitation | Phenomenon (dissolution) ([4]; Acetone 0.3 ml + Water 0.7 ml): Insoluble, a lot of precipitation | Phenomenon (dissolution) ([4]; Acetone 0.9 ml + Water 0.1 ml): Insoluble, a lot of precipitation | solubility ([5]; environment with pH 3.1): a certain solubility | solubility ([5]; gastric juice (pH 1.2) and intestinal juice (pH 4.5 to 6.8)): poor solubility
